# Laboratory results taken from US11197859B2 (AUTIFONY THERAPEUTICS LIMITED, priority 2010, dated 2021).
# Legend:
# [1] = target: T1, human Kv3.2 channels (hKv3.2) (Homo sapiens, UniProt Q96PR1); test: IonWorks Quattro electrophysiology, hKv3.2 currents, activation time constant (Tauact); assay type: cell-based; settings: hKv3.2, -15 mV pulse
# T1 construct: expressed in transfected cells
# T1 sequence (Q96PR1 1-638): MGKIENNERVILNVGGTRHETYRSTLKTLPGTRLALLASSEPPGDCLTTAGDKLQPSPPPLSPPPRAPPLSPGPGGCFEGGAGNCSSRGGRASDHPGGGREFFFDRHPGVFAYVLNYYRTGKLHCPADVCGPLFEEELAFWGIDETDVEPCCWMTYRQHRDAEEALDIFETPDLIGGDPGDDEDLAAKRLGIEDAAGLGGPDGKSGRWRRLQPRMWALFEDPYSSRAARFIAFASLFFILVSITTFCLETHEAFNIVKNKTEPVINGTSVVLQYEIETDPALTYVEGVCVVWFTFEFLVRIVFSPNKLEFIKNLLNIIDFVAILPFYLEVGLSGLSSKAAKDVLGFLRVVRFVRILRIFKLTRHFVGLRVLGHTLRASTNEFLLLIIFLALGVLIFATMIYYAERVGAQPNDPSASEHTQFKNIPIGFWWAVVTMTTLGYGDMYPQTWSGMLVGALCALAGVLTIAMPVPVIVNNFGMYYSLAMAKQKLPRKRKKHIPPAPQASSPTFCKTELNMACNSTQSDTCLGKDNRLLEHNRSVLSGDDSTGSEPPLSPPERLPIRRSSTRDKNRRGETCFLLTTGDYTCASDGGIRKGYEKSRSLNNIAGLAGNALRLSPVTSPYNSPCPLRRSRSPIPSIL
# Procedure: The ability of the compounds of the disclosure to modulate the voltage-gated potassium channel subtypes Kv3.2/3.1 may be determined using the following assay.
# To assess compound effects on human Kv3.2 channels (hKv3.2), a stable cell line expressing hKv3.2 was created by transfecting Chinese Hamster Ovary (CHO)-K1 cells with a pCIH5-hKv3.2 vector. Cells were cultured in DMEM/F12 medium supplemented by 10% Foetal Bovine Serum, 1× non-essential amino acids (Invitrogen) and 500 ug/ml of Hygromycin-B (Invitrogen). Cells were grown and maintained at 37° C. in a humidified environment containing 5% CO2 in air.
# The day of the experiment, cells were removed from the incubator and the culture medium removed. Cells were washed with 5 ml of Dulbecco's PBS (DPBS) calcium and magnesium free and detached by the addition of 3 ml Versene (Invitrogen, Italy) followed by a brief incubation at 37° C. for 5 minutes. The flask was tapped to dislodge cells and 10 ml of DPBS containing calcium and magnesium was added to prepare a cell suspension. The cell suspension was then placed into a 15 ml centrifuge tube and centrifuged for 2 min at 1200 rpm. After centrifugation, the supernatant was removed and the cell pellet re-suspended in 4 ml of DPBS containing calcium and magnesium using a 5 ml pipette to break up the pellet. Cell suspension volume was then corrected to give a cell concentration for the assay of approximately 3 million cells per ml.
# Experiments were conducted at room temperature using IonWorks Quattro™ planar array electrophysiology technology (Molecular Devices Corp.) with PatchPlate™ PPC. Stimulation protocols and data acquisition were carried out using a microcomputer (Dell Pentium 4). Planar electrode hole resistances(Rp) were determined by applying a 10 mV voltage step across each well. These measurements were performed before cell addition. […] Following this, amphotericin-B solution was added to the intracellular face of the electrode to achieve intracellular access. Cells were held at −70 mV. Leak subtraction was conducted in all experiments by applying 50 ms hyperpolarizing (10 mV) prepulses to evoke leak currents followed by a 20 ms period at the holding potential before test pulses. From the holding potential of −70 mV, a first test pulse to −15 mV was applied for 100 ms and following a further 100 ms at −70 mV, a second pulse to 40 mV was applied for 50 ms. Cells were then maintained for a further 100 ms at −100 mV and then a voltage ramp from −100 mV to 40 mV was applied over 200 ms. In all experiments, the test pulses protocol was performed in the absence (pre-read) and presence (post-read) of the test compound. Pre- and post-reads were separated by the compound addition followed by a 3 minute incubation.
# The intracellular solution contained the following (in mM): K-gluconate 100, KCl 54, MgCl2 3.2, HEPES 5, adjusted to pH 7.3 with KOH. Amphotericin-B solution was prepared as 50 mg/ml stock solution in DMSO and diluted to a final working concentration of 0.1 mg/ml in intracellular solution.
# The final assay dilution was 200 and the final compound concentrations were in the range 50 μM to 50 nM.
# The recordings were analysed and filtered using both seal resistance (>20 MΩ) and peak current amplitude (>500 pA at the voltage step of 40 mV) in the absence of compound to eliminate unsuitable cells from further analysis. Kv3 channel-mediated outward currents were measured determined from the mean amplitude of the current over the final 10 ms of the −15 mV voltage pulse minus the mean baseline current at −70 mV over a 10 ms period just prior to the −15 mV step. This Kv3 channel currents following addition of the test compound were then compared with the currents recorded prior to compound addition. […] The normalised data were analysed using ActivityBase or Excel software.
# [2] = test system: common marmosets (Callithrix jacchus); test: Pharmaco-electroencephalography (phEEG) in the common marmoset; assay type: in vivo
# Procedure: Laboratory bred male (vasectomised) and female common marmosets (Callithrix jacchus) over 2 years of age, weighing 250-500 g were used in this study. The animals were caged in couples, in a housing room maintained at 25±1° C., 60% humidity and a 12 hour light/dark cycle (lights on at 0600, with 30 min simulated dawn and twilight). Animals received a standard diet and drinking water ad libitum. Only one animal of each pair was involved in the test, which was carried out with the animal situated in the home cage.
# The effect of compounds of the disclosure was assessed using telemetric recording of cortical EEG (ECoG). A multichannel telemetric transmitter (DSI model TL11M2-F40-EET) is implanted intraperitoneally using standard surgical techniques in anaesthetised marmosets. Recording electrodes were permanently fixed, with dental cement, to the skull directly in contact with the dura mater through two drilled holes in the fronto-parietal region. Following surgery, animals were housed in pairs (one implanted, one unoperated partner) in their home cage with access to food and water ad libitum. […] All in vivo studies were conducted in accordance with the Italian laws and conformed to GlaxoSmithkline ethical standards.
# The animals were placed in the nest-boxes in their room cages and EEG traces were recorded using Dataquest ART software for a 5-min period for each time-point and analyzed using Spike2 software (CED, UK). The spectral power in each frequency band was determined for each 2 sec epoch during the pre-treatment period and averaged; similarly spectral power in each band was determined for successive 2 sec epochs of each 5-min period of recording following vehicle or drug treatment. Change in the absolute spectral power, for each of the different bands (delta, theta, alpha and beta) was calculated offline.
# Drug treatments were assigned according to a complete crossover design: All treatments were randomly distributed between animals, in separate experimental sessions, each animal received vehicle and each dose of drug, after an appropriate wash-out period.
# Six animals were treated orally with Reference Example RE2 at the doses of 0.3, 1 and 3 mg/kg (1 ml/kg) and the EEG traces were recorded at +15, 30, 60, 90, 120 and 180 minutes following treatment. Reference Example RE2 was suspended in 12.5% (w/v) aqueous captisol containing 0.1% (w/v) Tween80 and 0.5% (w/v) HPMC.
# Four different frequency bands were considered: delta (1.50-6.00 Hz), theta (6.00-8.00 Hz), alpha (8.00-12.00 Hz) and beta (12.00-30.00 Hz). Values for spectral power in each band at each time point were first log transformed and then analysed with a mixed effect model with time as fixed effect, the baseline level as covariate, and animal as random term. Data are summarised as mean of the percentage changes from baseline and standard error.
# [3] = compound 3.1 μM (concentration giving ~0.3 nA current)
# [4] = compound 0.4 μM (concentration giving ~0.3 nA current)
# [5] = compound 1.6 μM (concentration giving ~0.3 nA current)
# [6] = compound 0.8 μM (concentration giving ~0.3 nA current)
smiles,measurement,setting,value
CCc1cc(Oc2ccc(N3C(=O)N[C@H](CC)C3=O)cn2)ccc1C#N,Tauact mean,[1]; [3],8.2 ms
"CC1COc2cccc(Oc3ccc(N4C(=O)NC(C)(C)C4=O)cn3)c2C1 (single isomer, unassigned) [Example 25, 5,5-dimethyl-3-{6-[(3-methyl-3,4-dihydro-2H-chromen-5-yl)oxy]-3-pyridinyl}-2,4-imidazolidinedione]",Tauact mean,[1]; compound 6.25 μM (concentration giving ~0.3 nA current),7.87 ms
"CC1(C)NC(=O)N(c2ccc(Oc3cccc4c3C3(CC3)CO4)nc2)C1=O [Example 16, 5,5-dimethyl-3-[6-(spiro[1-benzofuran-3,1′-cyclopropan]-4-yloxy)-3-pyridinyl]-2,4-imidazolidinedione]",Tauact mean,[1]; [4],19.3 ms
"CC[C@@]1(C)NC(=O)N(c2cnc(Oc3ccc(C)c4c3C3(CC3)CO4)nc2)C1=O [Example 51, (5R)-5-ethyl-5-methyl-3-[2-(7-methylspiro[2H-benzofuran-3,1′-cyclopropane]-4-yl)oxypyrimidin-5-yl]imidazolidine-2,4-dione]",Tauact mean,[1]; [5],21.3 ms
"CC[C@H]1NC(=O)N(c2cnc(Oc3ccc(C)c4c3C3(CC3)CO4)nc2)C1=O [Example 61, (5R)-5-ethyl-3-[2-(7-methylspiro[2H-benzofuran-3,1′-cyclopropane]-4-yl)oxypyrimidin-5-yl]imidazolidine-2,4-dione]",Tauact mean,[1]; [6],31.5 ms
"CC[C@H]1NC(=O)N(c2ccc(Oc3ccc(C)c4c3C3(CC3)CO4)nc2)C1=O [Example 62, (5R)-5-ethyl-3-[6-(7-methylspiro[2H-benzofuran-3,1′-cyclopropane]-4-yl)oxy-3-pyridyl]imidazolidine-2,4-dione]",Tauact mean,[1]; [4],34.8 ms
"CC[C@H]1NC(=O)N(c2ccc(Oc3ccc(C)c4c3C(C)(C)CO4)nc2)C1=O [Example 63, (5R)-5-ethyl-3-{6-[(3,3,7-trimethyl-2,3-dihydro-1-benzofuran-4-yl)oxy]-3-pyridinyl}-2,4-imidazolidinedione]",Tauact mean,[1]; [4],28.0 ms
"CC[C@H]1NC(=O)N(c2cnc(Oc3ccc(C)c4c3C(C)(C)CO4)nc2)C1=O [Example 64, (5R)-5-ethyl-3-{2-[(3,3,7-trimethyl-2,3-dihydro-1-benzofuran-4-yl)oxy]-5-pyrimidinyl}-2,4-imidazolidinedione]",Tauact mean,[1]; [5],25.0 ms
"CC[C@@]1(C)NC(=O)N(c2ccc(Oc3ccc(C)c4c3C3(CC3)CO4)nc2)C1=O [Example 65, (5R)-5-ethyl-5-methyl-3-[6-(7-methylspiro[2H-benzofuran-3,1′-cyclopropane]-4-yl)oxy-3-pyridyl]imidazolidine-2,4-dione]",Tauact mean,[1]; [6],24.0 ms
"CC[C@@]1(C)NC(=O)N(c2ccc(Oc3ccc(C)c(OC)c3)nc2)C1=O [RE2, (5R)-5-ethyl-5-methyl-3-(6-{[4-methyl-3-(methyloxy)phenyl]oxy}-3-pyridinyl)-2,4-imidazolidinedione]",Tauact mean,[1]; compound 12.5 μM (concentration giving ~0.3 nA current),7.3 ms
same,absolute EEG power in the beta band,"[2]; 1 mg/kg oral, at 30 minutes (concomitant), vs vehicle, p<0.05",significant reduction
same,absolute EEG power in delta band,"[2]; 1 mg/kg oral, at 30 minutes, vs vehicle, p<0.10",marginally significant (p<0.10) increase
same,EEG theta band power,"[2]; 3 mg/kg oral, at 60 minutes, vs vehicle, p<0.05",statistically significant increase
same,absolute EEG power in the delta band,"[2]; 3 mg/kg oral, between 30 and 120 minutes, vs vehicle, p<0.05",statistically significant increase
same,EEG power in the alpha band,"[2]; any dose (0.3, 1, 3 mg/kg oral)",No significant effects
"CC[C@H]1NC(=O)N(c2ccc(Oc3ccc(C#N)cc3C(C)(C)C)nc2)C1=O [RE3, 3-(1,1-dimethylethyl)-4-({5-[(4R)-4-ethyl-2,5-dioxo-1-imidazolidinyl]-2-pyridinyl}oxy)benzonitrile]",Tauact mean,[1]; compound 0.2 μM (concentration giving ~0.3 nA current),23.0 ms
"CC[C@H]1NC(=O)N(c2ccc(Oc3ccc(C#N)c(C(C)C)c3)nc2)C1=O [RE4, 4-({5-[(4R)-4-ethyl-2,5-dioxo-1-imidazolidinyl]-2-pyridinyl}oxy)-2-(1-methylethyl)benzonitrile]",Tauact mean,[1]; [6],9.2 ms
"CC[C@H]1NC(=O)N(c2ccc(Oc3ccc(C#N)cc3C3CC3)nc2)C1=O [RE5, 3-cyclopropyl-4-({5-[(4R)-4-ethyl-2,5-dioxo-1-imidazolidinyl]-2-pyridinyl}oxy)benzonitrile]",Tauact mean,[1]; [3],13.0 ms
"CC[C@H]1NC(=O)N(c2ccc(Oc3ccc(C#N)c(OC(F)(F)F)c3)nc2)C1=O [RE7, 4-({5-[(4R)-4-ethyl-2,5-dioxo-1-imidazolidinyl]-2-pyridinyl}oxy)-2-[(trifluoromethyl)oxy]benzonitrile]",Tauact mean,[1]; [3],10.4 ms
"CC[C@H]1NC(=O)N(c2ccc(Oc3ccc(C#N)c(OC(C)C)c3)nc2)C1=O [RE8, 4-({5-[(4R)-4-ethyl-2,5-dioxo-1-imidazolidinyl]-2-pyridinyl}oxy)-2-[(1-methylethyl)oxy]benzonitrile]",Tauact mean,[1]; [3],9.7 ms
